Test results: patent publication US8198273B2, “Compounds and methods for kinase modulation, and indications therefor” (Plexxikon Inc., priority 2009, dated 2012)

Legend:
[1] = target: CYP2C19 (Homo sapiens, UniProt P33261); assay: CYP2C19 inhibition (fluorescent substrate); format: in vitro ADME; conditions: CYP2C19, CEC substrate; read-out: Cyp IC50 2C19
Experimental: CYP (Cytochrome P450) enzymes are the major drug metabolizing enzymes present in the liver. The inhibition of CYP enzyme activity (IC50) for each of CYP1A2, CYP2C19, CYP2C9, CYP2D6, CYP3A4(BFC) and CYP3A4(BQ) is determined for compounds, where inhibition of metabolism of a known substrate leads to a decrease in the fluorescence of the metabolized product. The fluorescence of the product is monitored as a function of compound concentration.
Compounds are dissolved in dimethyl sulfoxide to a concentration of 100 mM. These are diluted 1 μL into 82 μL of acetonitrile. […] These are then serially diluted 1:1 (160 μL to 160 μL co-factor mix) for a total of 10 points. A 10 μL aliquot of this final mixture is dispensed into 384 well assay plates and incubated for 10 minutes at 37° C. […] Assay plates are incubated at 37° C. […] The signal versus compound concentration is used to determine the IC50. The enzymes and substrates for this assay are obtained from BD Biosciences.

[2] = target: T1, A-Raf (Homo sapiens, UniProt P10398); assay: A-Raf biochemical kinase inhibition (AlphaScreen, biotin-MEK1 substrate); conditions: 100 μM ATP
T1 sequence (P10398 1-606): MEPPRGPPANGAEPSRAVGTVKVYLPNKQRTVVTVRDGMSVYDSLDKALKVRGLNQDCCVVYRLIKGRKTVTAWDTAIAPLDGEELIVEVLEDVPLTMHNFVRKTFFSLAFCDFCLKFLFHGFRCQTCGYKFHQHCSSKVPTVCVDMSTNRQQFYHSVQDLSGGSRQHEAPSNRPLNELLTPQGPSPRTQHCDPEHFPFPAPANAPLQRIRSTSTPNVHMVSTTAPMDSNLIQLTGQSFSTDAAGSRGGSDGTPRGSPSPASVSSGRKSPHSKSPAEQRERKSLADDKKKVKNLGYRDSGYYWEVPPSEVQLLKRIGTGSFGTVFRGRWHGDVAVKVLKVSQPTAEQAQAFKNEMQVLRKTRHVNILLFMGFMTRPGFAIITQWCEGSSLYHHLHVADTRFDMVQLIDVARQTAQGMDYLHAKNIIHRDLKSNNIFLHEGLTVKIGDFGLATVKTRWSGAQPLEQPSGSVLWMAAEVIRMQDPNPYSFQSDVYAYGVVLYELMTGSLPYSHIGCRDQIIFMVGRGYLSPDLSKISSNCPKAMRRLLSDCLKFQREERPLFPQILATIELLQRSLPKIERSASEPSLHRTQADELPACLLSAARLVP
Experimental: Compounds to be tested are diluted in dimethyl sulfoxide to a concentration of 0.1 mM. These are serially diluted 15 μL into 30 μL of dimethyl sulfoxide seven times in 96 well plates for a total of 8 dilution points, and for each dilution point 1 μL is added to a well of an assay plate. […] The reaction is started with addition of 10 μL of 200 μM ATP (i.e. final 100 μM ATP). […] The plates are incubated for 3 hours at room temperature and read on Envision reader (Perkin Elmer). […] The signal vs. compound concentration is used to determine the IC50.

CYP2C19, sequence (P33261 whole entry): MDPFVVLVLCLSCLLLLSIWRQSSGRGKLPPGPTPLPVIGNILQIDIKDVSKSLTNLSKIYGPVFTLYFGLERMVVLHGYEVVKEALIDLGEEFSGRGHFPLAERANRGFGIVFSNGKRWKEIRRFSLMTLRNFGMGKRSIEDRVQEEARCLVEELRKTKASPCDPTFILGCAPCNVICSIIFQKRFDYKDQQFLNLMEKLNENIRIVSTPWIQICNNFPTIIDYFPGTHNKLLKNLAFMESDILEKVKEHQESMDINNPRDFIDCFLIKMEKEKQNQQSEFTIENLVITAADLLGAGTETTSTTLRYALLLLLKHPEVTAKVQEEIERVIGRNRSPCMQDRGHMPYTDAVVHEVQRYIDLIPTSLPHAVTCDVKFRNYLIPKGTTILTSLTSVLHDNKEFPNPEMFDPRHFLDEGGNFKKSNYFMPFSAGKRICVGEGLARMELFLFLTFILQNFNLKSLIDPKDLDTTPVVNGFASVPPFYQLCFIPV

In the case of `O=C(c1c(F)ccc(NS(=O)(=O)c2ccccc2F)c1F)c1c[nH]c2nccc(Cl)c12` [P-2017, N-[3-(4-Chloro-1H-pyrrolo[2,3-b]pyridine-3-carbonyl)-2,4-difluoro-phenyl]-2-fluoro-benzenesulfonamide], the IC50 [1] is reported as > 10 µM and the IC50 [2] is reported as < 0.01 µM.

In the case of `COc1cnc2[nH]cc(C(=O)c3c(F)ccc(NS(=O)(=O)c4ccccc4F)c3F)c2c1` [P-2009, N-[2,4-Difluoro-3-(5-methoxy-1H-pyrrolo[2,3-b]pyridine-3-carbonyl)-phenyl]-2-fluoro-benzenesulfonamide], the IC50 [1] is reported as > 10 µM and the IC50 [2] is reported as < 0.01 µM.

For `N#Cc1ccnc2[nH]cc(C(=O)c3c(F)ccc(NS(=O)(=O)c4ccccc4F)c3F)c12` [P-2020, N-[3-(4-Cyano-1H-pyrrolo[2,3-b]pyridine-3-carbonyl)-2,4-difluoro-phenyl]-2-fluoro-benzenesulfonamide], the IC50 [1] was > 10 µM and the IC50 [2] was < 0.01 µM.

For `COc1ccnc2[nH]cc(C(=O)c3c(F)ccc(NS(=O)(=O)c4cc(F)ccc4F)c3F)c12` [P-2022, N-[2,4-Difluoro-3-(4-methoxy-1H-pyrrolo[2,3-b]pyridine-3-carbonyl)-phenyl]-2,5-difluoro-benzenesulfonamide], the IC50 [1] was > 10 µM and the IC50 [2] was < 0.1 µM.

For `CCCc1ccc(-c2cnc3[nH]cc(C(=O)c4c(F)ccc(NS(=O)(=O)CCC)c4F)c3c2)cn1` [P-2224, Propane-1-sulfonic acid {2,4-difluoro-3-[5-(6-propyl-pyridin-3-yl)-1H-pyrrolo[2,3-b]pyridine-3-carbonyl]-phenyl}-amide], the IC50 [1] was 5 to 10 µM and the IC50 [2] was < 0.01 µM.

With `COc1cnc2[nH]cc(C(=O)c3c(F)ccc(NS(=O)(=O)c4cc(F)ccc4F)c3F)c2c1` [P-2010, N-[2,4-Difluoro-3-(5-methoxy-1H-pyrrolo[2,3-b]pyridine-3-carbonyl)-phenyl]-2,5-difluoro-benzenesulfonamide] the IC50 [1] was > 10 µM and the IC50 [2] was < 0.01 µM.

`O=C(c1c(F)ccc(NS(=O)(=O)c2cc(F)ccc2F)c1F)c1c[nH]c2ncc(Cl)cc12` [P-2002, N-[3-(5-Chloro-1H-pyrrolo[2,3-b]pyridine-3-carbonyl)-2,4-difluoro-phenyl]-2,5-difluoro-benzenesulfonamide] was tested, and the IC50 [1] was 5 to 10 µM and the IC50 [2] was < 0.01 µM.

With `CCCS(=O)(=O)Nc1ccc(F)c(C(=O)c2c[nH]c3ncc(-c4ccc(N5CCCC5)nc4)cc23)c1F` [P-2231, Propane-1-sulfonic acid {2,4-difluoro-3-[5-(6-pyrrolidin-1-yl-pyridin-3-yl)-1H-pyrrolo[2,3-b]pyridine-3-carbonyl]-phenyl}-amide] the IC50 [1] was 5 to 10 µM and the IC50 [2] was < 0.01 µM.

In the case of `Cc1cnc2[nH]cc(C(=O)c3c(F)ccc(NS(=O)(=O)c4cccc(F)c4)c3F)c2c1` [P-2016, N-[2,4-Difluoro-3-(5-methyl-1H-pyrrolo[2,3-b]pyridine-3-carbonyl)-phenyl]-3-fluoro-benzenesulfonamide], the IC50 [1] is reported as > 10 µM and the IC50 [2] is reported as < 0.01 µM.

`N#Cc1ccnc2[nH]cc(C(=O)c3c(F)ccc(NS(=O)(=O)c4c(F)cccc4F)c3F)c12` [P-2037, N-[3-(4-Cyano-1H-pyrrolo[2,3-b]pyridine-3-carbonyl)-2,4-difluoro-phenyl]-2,6-difluoro-benzenesulfonamide] was tested, and the IC50 [1] was > 10 µM and the IC50 [2] was < 0.01 µM.

`O=C(c1c(F)ccc(NS(=O)(=O)c2cc(F)ccc2F)c1F)c1c[nH]c2nccc(Cl)c12` [P-2018, N-[3-(4-Chloro-1H-pyrrolo[2,3-b]pyridine-3-carbonyl)-2,4-difluoro-phenyl]-2,5-difluoro-benzenesulfonamide] was tested, and the IC50 [1] was > 10 µM and the IC50 [2] was < 0.01 µM.

In the case of `CCCS(=O)(=O)Nc1ccc(F)c(C(=O)c2c[nH]c3ncc(-c4ccc(C(=O)NC5CC5)nc4)cc23)c1F` [P-2181, 5-{3-[2,6-Difluoro-3-(propane-1-sulfonylamino)-benzoyl]-1H-pyrrolo[2,3-b]pyridin-5-yl}-pyridine-2-carboxylic acid cyclopropylamide], the IC50 [1] is reported as > 10 µM.

With `COc1ncc(-c2cnc3[nH]cc(C(=O)c4c(F)ccc(NS(=O)(=O)c5cc(F)ccc5F)c4F)c3c2)cn1` [P-2042, N-{2,4-Difluoro-3-[5-(2-methoxy-pyrimidin-5-yl)-1H-pyrrolo[2,3-b]pyridine-3-carbonyl]-phenyl}-2,5-difluoro-benzenesulfonamide] the IC50 [1] was > 10 µM.

With `COc1ncc(-c2cnc3[nH]cc(C(=O)c4c(F)ccc(NS(=O)(=O)c5cccc(F)c5)c4F)c3c2)cn1` [P-2045, N-{2,4-Difluoro-3-[5-(2-methoxy-pyrimidin-5-yl)-1H-pyrrolo[2,3-b]pyridine-3-carbonyl]-phenyl}-3-fluoro-benzenesulfonamide] the IC50 [1] was > 10 µM.

In the case of `COc1ccnc2[nH]cc(C(=O)c3c(F)ccc(NS(=O)(=O)c4cccnc4)c3F)c12` [P-2073, Pyridine-3-sulfonic acid [2,4-difluoro-3-(4-methoxy-1H-pyrrolo[2,3-b]pyridine-3-carbonyl)-phenyl]-amide], the IC50 [1] is reported as > 10 µM.

`CCCS(=O)(=O)Nc1ccc(F)c(C(=O)c2c[nH]c3ncc(-c4ccc(S(=O)(=O)NC)cc4)cc23)c1F` [P-2167, 4-{3-[2,6-Difluoro-3-(propane-1-sulfonylamino)-benzoyl]-1H-pyrrolo[2,3-b]pyridin-5-yl}-N-methyl-benzenesulfonamide] showed an IC50 [1] of 5 to 10 µM.

For `COc1ccnc2[nH]cc(C(=O)c3c(F)ccc(NS(=O)(=O)c4cccc(F)c4)c3F)c12` [P-2023, N-[2,4-Difluoro-3-(4-methoxy-1H-pyrrolo[2,3-b]pyridine-3-carbonyl)-phenyl]-3-fluoro-benzenesulfonamide], the IC50 [1] was > 10 µM.

`CCCS(=O)(=O)Nc1ccc(F)c(C(=O)c2c[nH]c3ncc(-c4ccc(SC)nc4)cc23)c1F` [P-2187, Propane-1-sulfonic acid {2,4-difluoro-3-[5-(6-methylsulfanyl-pyridin-3-yl)-1H-pyrrolo[2,3-b]pyridine-3-carbonyl]-phenyl}-amide] was tested, and the IC50 [1] was > 10 µM.

For `CCCS(=O)(=O)Nc1ccc(F)c(C(=O)c2c[nH]c3ncc(-c4ccc(S(=O)(=O)NC5CC5)cc4)cc23)c1F` [P-2168, N-Cyclopropyl-4-{3-[2,6-difluoro-3-(propane-1-sulfonylamino)-benzoyl]-1H-pyrrolo[2,3-b]pyridin-5-yl}-benzenesulfonamide], the IC50 [1] was 5 to 10 µM.

`CCCS(=O)(=O)Nc1ccc(F)c(C(=O)c2c[nH]c3ncc(-c4ccc(S(=O)(=O)N5CCOCC5)cc4)cc23)c1F` [P-2166, Propane-1-sulfonic acid (2,4-difluoro-3-{5-[4-(morpholine-4-sulfonyl)-phenyl]-1H-pyrrolo[2,3-b]pyridine-3-carbonyl}-phenyl)-amide] was tested, and the IC50 [1] was > 10 µM.

`CCCS(=O)(=O)Nc1ccc(F)c(C(=O)c2c[nH]c3ncc(-c4cnn(Cc5ccccc5)c4)cc23)c1F` [P-2190, Propane-1-sulfonic acid {3-[5-(1-benzyl-1H-pyrazol-4-yl)-1H-pyrrolo[2,3-b]pyridine-3-carbonyl]-2,4-difluoro-phenyl}-amide] gave an IC50 [1] of 5 to 10 µM.

In the case of `CCCS(=O)(=O)Nc1ccc(F)c(C(=O)c2c[nH]c3ncc(-c4ccc(S(=O)(=O)N(C)C)cc4)cc23)c1F` [P-2185, 4-{3-[2,6-Difluoro-3-(propane-1-sulfonylamino)-benzoyl]-1H-pyrrolo[2,3-b]pyridin-5-yl}-N,N-dimethyl-benzenesulfonamide], the IC50 [1] is reported as > 10 µM.

With `O=C(c1c(F)ccc(NS(=O)(=O)c2c(F)cccc2F)c1F)c1c[nH]c2ncc(Cl)cc12` [P-2003, N-[3-(5-Chloro-1H-pyrrolo[2,3-b]pyridine-3-carbonyl)-2,4-difluoro-phenyl]-2,6-difluoro-benzenesulfonamide] the IC50 [1] was > 10 µM.

In the case of `Cc1cnc2[nH]cc(C(=O)c3c(F)ccc(NS(=O)(=O)c4c(F)cccc4F)c3F)c2c1` [P-2024, N-[2,4-Difluoro-3-(5-methyl-1H-pyrrolo[2,3-b]pyridine-3-carbonyl)-phenyl]-2,6-difluoro-benzenesulfonamide], the IC50 [1] is reported as > 10 µM.

In the case of `CCCS(=O)(=O)Nc1ccc(F)c(C(=O)c2c[nH]c3ncc(-c4ccnc(F)c4)cc23)c1F` [P-2192, Propane-1-sulfonic acid {2,4-difluoro-3-[5-(2-fluoro-pyridin-4-yl)-1H-pyrrolo[2,3-b]pyridine-3-carbonyl]-phenyl}-amide], the IC50 [1] is reported as > 10 µM.
